Assay results: patent publication US20250197374A1, “WEE1 DEGRADING COMPOUNDS AND USES THEREOF” (BRISTOL-MYERS SQUIBB COMPANY, priority 2023, published 2025)

Molecular target: T1, WEE1 (Homo sapiens, UniProt P30291+Q96SW2)
T1 construct: C-terminal ePL-tagged (DiscoverX, Fremont, CA) full-length WEE1 expression construct; expressed in transfected cells; host or cells: LentiX-HEK293T (Invitrogen), lentivirally transduced; the cells also over-express GSPT1-GN
Test: WEE1-ePL degradation assay (293T-LentiX, InCELL Hunter luminescence, 4 hr)
Assay type: cell-based
Conditions: for 293T-LentiX WEE1-ePL Degradation 4 hr YMin (%): lower limit of fit, % of DMSO control signal remaining; for DC50: LentiX-HEK293T cells expressing WEE1-ePL, 4 hr incubation, read-out: 293T-LentiX WEE1-ePL Degradation 4 hr EC50
Description: To generate LentiX-WEE1-ePL-GSPT1-ND cells for the WEE1 degradation assay, LentiX-HEK293T (Invitrogen) were tranduced by lentivirus with a C-terminal ePL-tagged (DiscoverX, Fremont, CA) full-length WEE1 expression construct. A separate lentiviral construct was introduced to over-express a mutated form of GSPT1 (NP_002085), termed GSPT1-GN, which contains a G575N mutation and is further truncated in the first 158 amino acids. GSPT1-GN is functional but not degradable by Cereblon. Cells were selected and maintained in complete DMEM media (DMEM, 10% Heat Inactivated FBS, 400 μg/mL Geneticin, and 1 μg/mL puromycin at 37 C and 5% CO2). Cells were passaged every 3-4 days by reseeding 1×10^6 cells in a T150 flask.
Cells were dispensed into 384-well white plates (Corning #3570, NY) that were pre-spotted with compounds using an acoustic dispenser (Echo acoustic transfer system, Beckman Coulter Life Sciences, Carlsbad, CA) as a 10-point dose-response curve with a 3-fold dilution starting at either 1 uM or 10 uM and including a DMSO control. Twenty-five microliters of media containing 2500 cells for LentiX-oeWEE1-ePL was dispensed per well. Assay plates were incubated at 37° C. with 5% CO2 for four hours (WEE1) After incubation, 25 μL of the InCELL Hunter™ Detection Reagent Working Solution (DiscoverX, Fremont, CA) was added to each well and incubated at room temperature for 30 minutes protected from light. After 30 minutes, luminescence was read on a PHERAstar luminometer (Cary, NC).
To determine the half-maximal effective concentration (EC50) values for WEE1-ePL degradation, a four parameter logistic model was used: (Sigmoidal Dose-Response Model) (FIT=(A+((B−A)/1+((C/x)^D)))) where C is the inflection point (EC50), D is the Hill slope, and A and B are the low and high limits of the fit respectively). The lower limit of the fit (value A) is referred to as Ymin. […] The maximum limit constraint, Ymax, is similarly derived using DMSO control. The curves were processed and evaluated using Activity Base (IDBS, Alameda, CA) or using Dotmatics (Boston, MA).

T1 sequence (P30291 whole entry): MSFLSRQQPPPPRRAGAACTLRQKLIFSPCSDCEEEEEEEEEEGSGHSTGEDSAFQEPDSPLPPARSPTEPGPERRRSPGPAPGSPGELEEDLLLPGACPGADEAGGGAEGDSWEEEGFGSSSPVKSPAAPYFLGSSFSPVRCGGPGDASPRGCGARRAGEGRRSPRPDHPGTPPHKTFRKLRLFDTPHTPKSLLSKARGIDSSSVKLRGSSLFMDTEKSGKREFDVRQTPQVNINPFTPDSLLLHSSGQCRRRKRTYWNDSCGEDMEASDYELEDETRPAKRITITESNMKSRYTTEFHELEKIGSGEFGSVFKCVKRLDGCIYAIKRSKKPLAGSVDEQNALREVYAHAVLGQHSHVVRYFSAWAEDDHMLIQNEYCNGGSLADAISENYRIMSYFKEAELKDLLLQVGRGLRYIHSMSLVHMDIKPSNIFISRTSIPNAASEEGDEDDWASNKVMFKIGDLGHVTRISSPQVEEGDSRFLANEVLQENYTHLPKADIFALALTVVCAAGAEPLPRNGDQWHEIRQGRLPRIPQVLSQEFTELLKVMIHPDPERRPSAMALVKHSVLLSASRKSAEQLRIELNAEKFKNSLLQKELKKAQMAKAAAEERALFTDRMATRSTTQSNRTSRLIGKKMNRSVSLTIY
T1 sequence (Q96SW2 whole entry): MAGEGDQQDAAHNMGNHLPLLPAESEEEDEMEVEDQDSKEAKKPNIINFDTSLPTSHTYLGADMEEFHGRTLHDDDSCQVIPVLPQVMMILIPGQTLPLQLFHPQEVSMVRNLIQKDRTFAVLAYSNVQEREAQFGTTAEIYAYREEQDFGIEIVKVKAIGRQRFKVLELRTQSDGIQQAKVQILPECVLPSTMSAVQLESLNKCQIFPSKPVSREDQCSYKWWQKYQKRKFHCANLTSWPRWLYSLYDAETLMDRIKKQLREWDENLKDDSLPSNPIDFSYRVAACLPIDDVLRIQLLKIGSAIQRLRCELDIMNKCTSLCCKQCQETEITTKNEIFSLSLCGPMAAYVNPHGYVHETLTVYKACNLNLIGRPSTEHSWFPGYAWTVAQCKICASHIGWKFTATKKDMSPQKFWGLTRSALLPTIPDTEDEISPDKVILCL
T1 sequence (Q16531 whole entry partner): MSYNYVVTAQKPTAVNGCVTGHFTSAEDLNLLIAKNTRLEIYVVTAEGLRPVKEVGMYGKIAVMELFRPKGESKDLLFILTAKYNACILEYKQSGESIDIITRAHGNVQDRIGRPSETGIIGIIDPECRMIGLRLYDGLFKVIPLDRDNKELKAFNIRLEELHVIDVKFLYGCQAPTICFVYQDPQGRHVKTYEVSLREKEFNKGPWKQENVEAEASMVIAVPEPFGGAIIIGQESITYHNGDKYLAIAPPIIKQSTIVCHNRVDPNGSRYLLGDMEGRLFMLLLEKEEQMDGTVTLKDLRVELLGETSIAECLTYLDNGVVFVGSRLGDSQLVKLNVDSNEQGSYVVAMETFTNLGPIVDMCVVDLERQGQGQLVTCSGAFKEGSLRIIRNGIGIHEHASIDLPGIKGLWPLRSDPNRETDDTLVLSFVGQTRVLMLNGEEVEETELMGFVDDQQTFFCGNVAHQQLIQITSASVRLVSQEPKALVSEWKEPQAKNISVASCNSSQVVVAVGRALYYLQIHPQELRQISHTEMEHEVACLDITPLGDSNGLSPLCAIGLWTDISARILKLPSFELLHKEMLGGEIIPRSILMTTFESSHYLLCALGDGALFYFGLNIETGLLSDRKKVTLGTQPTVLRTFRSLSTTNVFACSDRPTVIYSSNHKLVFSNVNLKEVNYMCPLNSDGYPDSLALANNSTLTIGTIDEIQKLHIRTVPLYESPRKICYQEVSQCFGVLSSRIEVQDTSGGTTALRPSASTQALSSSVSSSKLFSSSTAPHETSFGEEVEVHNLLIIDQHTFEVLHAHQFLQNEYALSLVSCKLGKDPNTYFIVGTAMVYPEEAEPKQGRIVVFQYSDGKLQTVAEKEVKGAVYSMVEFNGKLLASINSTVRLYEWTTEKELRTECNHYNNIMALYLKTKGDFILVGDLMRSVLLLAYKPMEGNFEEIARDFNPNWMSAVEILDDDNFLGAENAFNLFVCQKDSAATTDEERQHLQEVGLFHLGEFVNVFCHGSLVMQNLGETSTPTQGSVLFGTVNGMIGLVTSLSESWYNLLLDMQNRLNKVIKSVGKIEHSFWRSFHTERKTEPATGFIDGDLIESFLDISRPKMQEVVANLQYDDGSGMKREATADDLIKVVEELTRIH

| 293T-LentiX WEE1-ePL Degradation 4 hr YMin (%) | DC50 [nM] | Compound |
| --- | --- | --- |
| 90.0 |  | Cc1cc([C@@H]2CN(Cc3cc(F)c4nc(C5CCOCC5)ccc4c3)C[C@H]2Oc2ccc3c(c2)CN([C@H]2CCC(=O)NC2=O)C3=O)ccn1 (relative stereo) [Example 126, (3S)-3-(5-{[(3S*,4R*)-1-{[8-fluoro-2-(oxan-4-yl)quinolin-6-yl]methyl}-4-(2-methylpyridin-4-yl)pyrrolidin-3-yl]oxy}-1-oxo-2,3-dihydro-1H-isoindol-2-yl)piperidine-2,6-dione] |
| 100.0 |  | CC(C)(C)C[C@@H]1CN(Cc2cc(F)c3nc(C4CCOCC4)ccc3c2)C[C@H]1Oc1ccc2c(c1)CN([C@H]1CCC(=O)NC1=O)C2=O (relative stereo) [Example 131, (3S)-3-(5-{[(3S*,4R*)-4-(2,2-dimethylpropyl)-1-{[8-fluoro-2-(oxan-4-yl)quinolin-6-yl]methyl}pyrrolidin-3-yl]oxy}-1-oxo-2,3-dihydro-1H-isoindol-2-yl)piperidine-2,6-dione] |
| 58.0 | 70 | O=C1CCC(N2Cc3cc(O[C@@H]4CN(Cc5cc(F)c6nc(C7CCOCC7)ccc6c5)C[C@H]4OC4COC4)ccc3C2=O)C(=O)N1 (relative stereo) [Example 133, rel-3-(5-(((3R,4R)-1-((8-fluoro-2-(tetrahydro-2H-pyran-4-yl)quinolin-6-yl)methyl)-4-(oxetan-3-yloxy)pyrrolidin-3-yl)oxy)-1-oxoisoindolin-2-yl)piperidine-2,6-dione] |
| 48.5 | 10 | CC(C)(C)C[C@H]1CN(Cc2cc(F)c3nc(C4CCOCC4)ccc3c2)C[C@@H]1Oc1ccc2c(c1)CN([C@H]1CCC(=O)NC1=O)C2=O (relative stereo) [Example 150, (3S)-3-(5-{[(3R*,4S*)-4-(2,2-dimethylpropyl)-1-{[8-fluoro-2-(oxan-4-yl)quinolin-6-yl]methyl}pyrrolidin-3-yl]oxy}-1-oxo-2,3-dihydro-1H-isoindol-2-yl)piperidine-2,6-dione] |
| 22.4 | 11 | Cc1cc([C@H]2CN(Cc3cc(F)c4nc(C5CCOCC5)ccc4c3)C[C@@H]2Oc2ccc3c(c2)CN([C@H]2CCC(=O)NC2=O)C3=O)ccn1 (relative stereo) [Example 151, (3S)-3-(5-{[(3R*,4S*)-1-{[8-fluoro-2-(oxan-4-yl)quinolin-6-yl]methyl}-4-(2-methylpyridin-4-yl)pyrrolidin-3-yl]oxy}-1-oxo-2,3-dihydro-1H-isoindol-2-yl)piperidine-2,6-dione] |
| 82.2 |  | O=C1CCC(N2Cc3cc(O[C@H]4CN(Cc5cc(F)c6nc(C7CCOCC7)ccc6c5)C[C@@H]4OC4COC4)ccc3C2=O)C(=O)N1 (relative stereo) [Example 152, rel-3-(5-(((3S,4S)-1-((8-fluoro-2-(tetrahydro-2H-pyran-4-yl)quinolin-6-yl)methyl)-4-(oxetan-3-yloxy)pyrrolidin-3-yl)oxy)-1-oxoisoindolin-2-yl)piperidine-2,6-dione] |
| 20.1 |  | COC[C@@H]1CN(Cc2ccc3ncc(N4CCOCC4)cc3c2F)C[C@H]1Oc1ccc2c(c1)CN([C@H]1CCC(=O)NC1=O)C2=O [Example 31, (3S)-3-(5-{[(3S,4S)-1-{[5-fluoro-3-(morpholin-4-yl)quinolin-6-yl]methyl}-4-(methoxymethyl)pyrrolidin-3-yl]oxy}-1-oxo-2,3-dihydro-1H-isoindol-2-yl)piperidine-2,6-dione] |
| 24.5 | 2 | COC[C@@H]1CN(Cc2cc(F)c3cc(N4CCOCC4)ncc3c2)C[C@H]1Oc1ccc2c(c1)CN([C@H]1CCC(=O)NC1=O)C2=O [Example 49, (3S)-3-(5-{[(3S,4S)-1-{[5-fluoro-3-(morpholin-4-yl)isoquinolin-7-yl]methyl}-4-(methoxymethyl)pyrrolidin-3-yl]oxy}-1-oxo-2,3-dihydro-1H-isoindol-2-yl)piperidine-2,6-dione] |
| 20.9 | 2 | COC[C@@H]1CN(Cc2ccc3nc(N4CCN(C(C)=O)C5(COC5)C4)ncc3c2)C[C@H]1Oc1ccc2c(c1)CN([C@H]1CCC(=O)NC1=O)C2=O [Example 95, (3S)-3-(5-{[(3S,4S)-1-[(2-{5-acetyl-2-oxa-5,8-diazaspiro[3.5]nonan-8-yl}quinazolin-6-yl)methyl]-4-(methoxymethyl)pyrrolidin-3-yl]oxy}-1-oxo-2,3-dihydro-1H-isoindol-2-yl)piperidine-2,6-dione] |
| 24.6 | 1 | COC[C@@H]1CN(Cc2cc(F)c3nc(C)c(N4CCOCC4)cc3c2)C[C@H]1Oc1ccc2c(c1)CN([C@H]1CCC(=O)NC1=O)C2=O [Example 100, (3S)-3-(5-{[(3S,4S)-1-{[8-fluoro-2-methyl-3-(morpholin-4-yl)quinolin-6-yl]methyl}-4-(methoxymethyl)pyrrolidin-3-yl]oxy}-1-oxo-2,3-dihydro-1H-isoindol-2-yl)piperidine-2,6-dione] |
| 33.0 | 3 | COC[C@@H]1CN(Cc2ccc3cc(N4CCOCC4)cnc3c2F)C[C@H]1Oc1ccc2c(c1)CN([C@H]1CCC(=O)NC1=O)C2=O [Example 101, (3S)-3-(5-{[(3S,4S)-1-{[8-fluoro-3-(morpholin-4-yl)quinolin-7-yl]methyl}-4-(methoxymethyl)pyrrolidin-3-yl]oxy}-1-oxo-2,3-dihydro-1H-isoindol-2-yl)piperidine-2,6-dione] |
| 25.4 |  | COC[C@@H]1CN(Cc2cc3ccc(N4CCN(C(C)=O)CC4)cc3c(F)n2)C[C@H]1Oc1ccc2c(c1)CN([C@H]1CCC(=O)NC1=O)C2=O [Example 124, (3S)-3-(5-{[(3S,4S)-1-{[7-(4-acetylpiperazin-1-yl)-1-fluoroisoquinolin-3-yl]methyl}-4-(methoxymethyl)pyrrolidin-3-yl]oxy}-1-oxo-2,3-dihydro-1H-isoindol-2-yl)piperidine-2,6-dione] |
| 29.2 | 4 | O=C1CC[C@H](N2Cc3cc(O[C@@H]4CN(Cc5cc(F)c6nc(C7CCOCC7)ccc6c5)C[C@H]4OCC4CC4)ccc3C2=O)C(=O)N1 [Example 125, (3S)-3-(5-{[(3R,4R)-4-(cyclopropyl-methoxy)-1-{[8-fluoro-2-(oxan-4-yl)quinolin-6-yl]methyl}pyrrolidin-3-yl]oxy}-1-oxo-2,3-dihydro-1H-isoindol-2-yl)piperidine-2,6-dione] |
| 44.9 | 5 | CC(C)O[C@@H]1CN(Cc2cc(F)c3nc(C4CCOCC4)ccc3c2)C[C@H]1Oc1ccc2c(c1)CN([C@H]1CCC(=O)NC1=O)C2=O [Example 132, (3S)-3-(5-{[(3R,4R)-1-{[8-fluoro-2-(oxan-4-yl)quinolin-6-yl]methyl}-4-(propan-2-yloxy)pyrrolidin-3-yl]oxy}-1-oxo-2,3-dihydro-1H-isoindol-2-yl)piperidine-2,6-dione] |
| 21.4 | 3 | COC[C@@H]1CN(Cc2cc(F)c3nc(C4CCN(C5COC5)CC4)ncc3c2)C[C@H]1Oc1ccc2c(c1)CN([C@H]1CCC(=O)NC1=O)C2=O [Example 144, (3S)-3-(5-{[(3S,4S)-1-({8-fluoro-2-[1-(oxetan-3-yl)piperidin-4-yl]quinazolin-6-yl}methyl)-4-(methoxymethyl)pyrrolidin-3-yl]oxy}-1-oxo-2,3-dihydro-1H-isoindol-2-yl)piperidine-2,6-dione] |
